According to patent US20250188040A1, “PHARMACEUTICAL COMPOSITIONS COMPRISING WRN HELICASE INHIBITORS” (Vividion Therapeutics, Inc., priority 2022, published 2025):
Where two headings read alike, the source gives them in different places.

What was measured:
[1] = molecular target: T1, WRN C727 (Homo sapiens, UniProt Q14191); experiment: Target engagement, in situ (cell), OCI-AML2; type: cell-based; settings: OCI-AML2 cells, read-out: OCI-AML2 WRN C727 TE50 in situ (cell)
T1 construct: endogenous in cells; host or cells: OCI-AML2
Protocol: Cells or cell lysates were treated with a dose response of compound followed by probe treatment, which labels solvent exposed cysteines. Proteins were enzymatically digested with trypsin and probe-labelled peptides were enriched with streptavidin. Isolated peptides were then separated using reversed-phase liquid chromatography on a C18 column (Dionex Ultimated 3000 nano-LC, Thermo). Peptides were analyzed by parallel reaction monitoring mass spectrometry (Exploris 120, Thermo).
Target engagement (%) is calculated relative to DMSO treated control samples.

[2] = molecular target: T1, WRN C727; experiment: Target engagement, in vitro (lysate), OCI-AML2; type: binding; settings: read-out: OCI-AML2 WRN C727 TE50 in vitro (lysate)
Outline: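 OCI-AML2 intact cells or lysates dosed with compound, then a cysteine-reactive probe; after trypsin digestion, probe-labelled peptides were streptavidin-enriched and quantified by nano-LC parallel reaction monitoring MS. Engagement (%) relative to DMSO controls.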

[3] = tested on: SW480 cells; experiment: Cell growth assay (CellTiter-Glo 2.0), SW480 MSS cell line; settings: Homo sapiens, SW480, 120 h, read-out: Cell Growth Inhibition GI50 SW480
[4] = tested on: HCT 116 cells; experiment: Cell growth assay (CellTiter-Glo 2.0), HCT 116 MSI-H cell line; settings: Homo sapiens, HCT-116, 120 h, read-out: Cell Growth Inhibition GI50 HCT-116
[5] = molecular target: hWRN(519-1227)_C-H3CV-GFP-10His (Homo sapiens, UniProt Q14191); experiment: Helicase Assay for WRN Inhibition (ATP-dependent, fluorescence based)
[6] = WRN Helicase IC50, 30 min preincubation with ATP, 30 min reaction

T1 sequence (Q14191 whole entry): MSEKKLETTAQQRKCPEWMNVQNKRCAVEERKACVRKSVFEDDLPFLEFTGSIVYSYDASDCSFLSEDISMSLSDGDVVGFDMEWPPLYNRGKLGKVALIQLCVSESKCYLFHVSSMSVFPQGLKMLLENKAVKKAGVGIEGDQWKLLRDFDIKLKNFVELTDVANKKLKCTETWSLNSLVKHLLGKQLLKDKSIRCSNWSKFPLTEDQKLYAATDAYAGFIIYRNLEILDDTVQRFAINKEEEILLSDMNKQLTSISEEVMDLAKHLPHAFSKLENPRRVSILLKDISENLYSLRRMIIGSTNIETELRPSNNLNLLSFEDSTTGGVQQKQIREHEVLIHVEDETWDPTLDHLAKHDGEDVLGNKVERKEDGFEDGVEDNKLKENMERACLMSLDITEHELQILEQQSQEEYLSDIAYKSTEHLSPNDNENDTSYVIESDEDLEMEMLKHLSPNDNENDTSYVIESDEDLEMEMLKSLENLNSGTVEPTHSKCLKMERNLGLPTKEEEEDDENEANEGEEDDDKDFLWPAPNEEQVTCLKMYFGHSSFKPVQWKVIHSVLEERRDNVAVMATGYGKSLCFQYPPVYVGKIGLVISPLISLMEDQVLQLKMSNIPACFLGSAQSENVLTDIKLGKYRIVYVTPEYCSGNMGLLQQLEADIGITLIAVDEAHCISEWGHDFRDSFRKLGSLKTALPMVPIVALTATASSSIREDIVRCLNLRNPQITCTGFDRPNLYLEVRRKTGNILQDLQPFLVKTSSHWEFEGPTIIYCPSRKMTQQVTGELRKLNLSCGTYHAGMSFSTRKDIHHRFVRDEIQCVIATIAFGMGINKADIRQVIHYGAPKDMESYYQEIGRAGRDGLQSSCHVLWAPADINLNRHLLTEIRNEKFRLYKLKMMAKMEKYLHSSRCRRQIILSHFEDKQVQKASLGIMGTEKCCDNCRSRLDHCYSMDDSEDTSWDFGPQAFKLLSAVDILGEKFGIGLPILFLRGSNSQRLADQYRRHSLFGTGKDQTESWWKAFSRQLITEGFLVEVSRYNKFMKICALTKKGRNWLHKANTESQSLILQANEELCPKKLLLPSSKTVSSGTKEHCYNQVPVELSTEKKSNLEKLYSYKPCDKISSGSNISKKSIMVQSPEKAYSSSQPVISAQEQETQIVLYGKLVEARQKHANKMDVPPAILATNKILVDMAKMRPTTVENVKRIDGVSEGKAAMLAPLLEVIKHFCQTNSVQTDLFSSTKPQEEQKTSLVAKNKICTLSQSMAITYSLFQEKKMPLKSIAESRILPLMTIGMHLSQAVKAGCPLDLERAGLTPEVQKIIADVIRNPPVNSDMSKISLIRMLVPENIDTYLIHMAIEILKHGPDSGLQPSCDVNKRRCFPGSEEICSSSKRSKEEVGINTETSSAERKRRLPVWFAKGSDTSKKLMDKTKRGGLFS
Chain of hWRN(519-1227)_C-H3CV-GFP-10His (Q14191 519-1227): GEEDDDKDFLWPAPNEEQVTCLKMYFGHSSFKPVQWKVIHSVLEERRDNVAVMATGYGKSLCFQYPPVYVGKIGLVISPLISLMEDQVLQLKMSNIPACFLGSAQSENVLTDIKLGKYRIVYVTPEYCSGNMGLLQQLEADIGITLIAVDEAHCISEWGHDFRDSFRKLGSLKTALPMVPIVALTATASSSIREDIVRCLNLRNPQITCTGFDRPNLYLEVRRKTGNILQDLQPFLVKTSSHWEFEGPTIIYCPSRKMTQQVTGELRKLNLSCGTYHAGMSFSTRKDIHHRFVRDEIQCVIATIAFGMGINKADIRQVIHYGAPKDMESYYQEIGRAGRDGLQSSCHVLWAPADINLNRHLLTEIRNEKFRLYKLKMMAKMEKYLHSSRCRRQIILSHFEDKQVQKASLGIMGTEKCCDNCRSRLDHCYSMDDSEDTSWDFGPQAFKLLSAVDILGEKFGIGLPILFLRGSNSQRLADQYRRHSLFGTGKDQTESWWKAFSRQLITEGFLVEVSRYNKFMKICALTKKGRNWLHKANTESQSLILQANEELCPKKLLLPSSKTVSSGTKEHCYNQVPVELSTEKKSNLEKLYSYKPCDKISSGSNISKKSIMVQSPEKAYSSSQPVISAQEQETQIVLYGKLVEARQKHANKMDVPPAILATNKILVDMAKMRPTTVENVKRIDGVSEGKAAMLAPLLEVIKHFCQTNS

Compound | IC50 [1] [µM] | IC50 [2] [µM] | GI50 [3] [µM] | GI50 [4] [µM] | IC50 [5, 6] [µM] | IC50 [5] [µM]
COCC(/C=C/S(C)(=O)=O)NC(=O)c1cnc(C(F)(F)C2CC2)nc1Oc1ccccc1 (stereo in doubt) [Example 226, (S,E)-2-(cyclopropyldifluoromethyl)-N-(1-methoxy-4-(methylsulfonyl)but-3-en-2-yl)-4-phenoxypyrimidine-5-carboxamide] | 0.016 | 0.116 | 27.9 | 0.023 | 0.0929 | –
CC[C@@H](/C=C/S(C)(=O)=O)NC(=O)c1cnc(C2CCCC2)nc1Oc1ccccc1 [Example 6, (S,E)-2-cyclopentyl-N-(1-(methylsulfonyl)pent-1-en-3-yl)-4-phenoxypyrimidine-5-carboxamide] | 0.2 | 5 | 11.8 | 0.214 | 0.439 | –
CCc1ncc(C(=O)NC/C=C/S(C)(=O)=O)c(Oc2ccccc2)n1 [Example 12, (E)-2-ethyl-N-(3-(methylsulfonyl)allyl)-4-phenoxypyrimidine-5-carboxamide] | 50 | > 100 | > 10 | 8.9 | 14 | –
CC(C)c1ncc(C(=O)NC/C=C/S(C)(=O)=O)c(Oc2ccccc2)n1 [Example 14, (E)-2-isopropyl-N-(3-(methylsulfonyl)allyl)-4-phenoxypyrimidine-5-carboxamide] | 2.09 | 20 | > 10 | 5.4 | 10 | –
CS(=O)(=O)/C=C/CNC(=O)c1cnc(C2CC2)nc1Oc1ccccc1 [Example 17, (E)-2-cyclopropyl-N-(3-(methylsulfonyl)allyl)-4-phenoxypyrimidine-5-carboxamide] | 5.99 | 80 | > 10 | 6.3 | 7.62 | –
C[C@@H](/C=C/S(C)(=O)=O)NC(=O)c1cnc(C2CC2)nc1Oc1ccccc1 [Example 18, (S,E)-2-cyclopropyl-N-(4-(methylsulfonyl)but-3-en-2-yl)-4-phenoxypyrimidine-5-carboxamide] | 1.53 | 6.84 | > 10 | 0.38 | 1.1 | –
C[C@@H](/C=C/S(C)(=O)=O)NC(=O)c1cnc(CC2CC2)nc1Oc1ccccc1 [Example 35, (S,E)-2-(cyclopropylmethyl)-N-(4-(methylsulfonyl)but-3-en-2-yl)-4-phenoxypyrimidine-5-carboxamide] | 0.29 | 5 | 18.1 | 0.171 | 1.01 | –
CC(C)(C)c1ncc(C(=O)NC/C=C/S(C)(=O)=O)c(Oc2ccccc2)n1 [Example 56, (E)-2-(tert-butyl)-N-(3-(methylsulfonyl)allyl)-4-phenoxypyrimidine-5-carboxamide] | 0.43 | 4.9 | 10.6 | 0.378 | 0.842 | –
CC(C)(C)c1ncc(C(=O)N[C@H](/C=C/S(C)(=O)=O)C2CC2)c(Oc2ccccc2)n1 [Example 58, (S,E)-2-(tert-butyl)-N-(1-cyclopropyl-3-(methylsulfonyl)allyl)-4-phenoxypyrimidine-5-carboxamide] | 0.016 | 0.448 | 8.73 | 0.0235 | 0.0577 | –
C[C@@H](/C=C/S(C)(=O)=O)NC(=O)c1cnc(C2CCCCC2)nc1Oc1ccccc1 [Example 77, (S,E)-2-cyclohexyl-N-(4-(methylsulfonyl)but-3-en-2-yl)-4-phenoxypyrimidine-5-carboxamide] | 1.14 | 26 | > 5 | 0.43 | 1.5 | –
C[C@@H](/C=C/S(C)(=O)=O)NC(=O)c1cnc(-c2ccccc2)nc1Oc1ccccc1 [Example 80, (S,E)-N-(4-(methylsulfonyl)but-3-en-2-yl)-4-phenoxy-2-phenylpyrimidine-5-carboxamide] | 20.4 | > 100 | – | – | 148 | –
CS(=O)(=O)/C=C/[C@@H](NC(=O)c1cnc(C2(F)CC2)nc1Oc1ccccc1)C1CC1 [Example 100, (S,E)-N-(1-cyclopropyl-3-(methylsulfonyl)allyl)-2-(1-fluorocyclopropyl)-4-phenoxypyrimidine-5-carboxamide] | 0.15 | 0.853 | 24.4 | 0.066 | 0.174 | –
CCc1cccc(Oc2nc(C3CCCC3)ncc2C(=O)N[C@@H](C)/C=C/S(C)(=O)=O)c1 [Example 108, (S,E)-2-cyclopentyl-4-(3-ethylphenoxy)-N-(4-(methylsulfonyl)but-3-en-2-yl)pyrimidine-5-carboxamide] | 50 | > 100 | – | – | 87 | –
C[C@@H](/C=C/S(C)(=O)=O)NC(=O)c1cnc(C2CCCC2)nc1Oc1cc(Cl)cc(Cl)c1 [Example 123, (S,E)-2-cyclopentyl-4-(3,5-dichlorophenoxy)-N-(4-(methylsulfonyl)but-3-en-2-yl)pyrimidine-5-carboxamide] | 20 | > 100 | – | – | 29 | –
C[C@@H](/C=C/S(C)(=O)=O)NC(=O)c1cnc(C2CCCC2)nc1Oc1cccc2ccccc12 [Example 139, (S,E)-2-cyclopentyl-N-(4-(methylsulfonyl)but-3-en-2-yl)-4-(naphthalen-1-yloxy)pyrimidine-5-carboxamide] | > 100 | > 100 | – | – | 192 | –
CS(=O)(=O)C=C1CN(C(=O)c2cnc(C3CC3)nc2Oc2ccccc2)C1 [Example 188, (2-cyclopropyl-4-phenoxypyrimidin-5-yl)(3-((methylsulfonyl)methylene)azetidin-1-yl)methanone] | 0.49 | – | > 15.2 | 0.391 | – | 1.1
C[C@@H](/C=C/S(C)(=O)=O)NC(=O)c1cnc(C(C)(C)C)cc1Oc1ccccc1 [Example 253, (S,E)-6-(tert-butyl)-N-(4-(methylsulfonyl)but-3-en-2-yl)-4-phenoxynicotinamide] | 0.2 | – | > 10 | 0.24 | 0.94 | –

Results, then the compound that gave them:

IC50 [1] [µM] | IC50 [2] [µM] | GI50 [3] [µM] | GI50 [4] [µM] | IC50 [5, 6] [µM] | IC50 [5] [µM] | Compound
0.26 | 1.18 | > 10 | 0.27 | 0.91 | – | C[C@@H](/C=C/S(C)(=O)=O)NC(=O)c1cnc(C2CCC2)nc1Oc1ccccc1 [Example 44, (S,E)-2-cyclobutyl-N-(4-(methylsulfonyl)but-3-en-2-yl)-4-phenoxypyrimidine-5-carboxamide]
0.016 | 0.2 | 8.78 | 0.0511 | 0.08 | – | CS(=O)(=O)/C=C/[C@@H](NC(=O)c1cnc(C(F)(F)C(F)(F)F)nc1Oc1ccccc1)C1CC1 [Example 84, (S,E)-N-(1-cyclopropyl-3-(methylsulfonyl)allyl)-2-(perfluoroethyl)-4-phenoxypyrimidine-5-carboxamide]
0.16 | 0.53 | 4.14 | 0.0818 | 0.13 | – | CS(=O)(=O)/C=C/[C@@H](NC(=O)c1cnc(C2(C(F)(F)F)CC2)nc1Oc1ccccc1)C1CC1 [Example 102, (S,E)-N-(1-cyclopropyl-3-(methylsulfonyl)allyl)-4-phenoxy-2-(1-(trifluoromethyl)cyclopropyl)pyrimidine-5-carboxamide]
8.07 | > 100 | – | – | 22 | – | C[C@@H](/C=C/S(C)(=O)=O)NC(=O)c1cnc(C2CCCC2)nc1Oc1cc(F)cc(Cl)c1 [Example 122, (S,E)-4-(3-chloro-5-fluorophenoxy)-2-cyclopentyl-N-(4-(methylsulfonyl)but-3-en-2-yl)pyrimidine-5-carboxamide]
7.08 | > 100 | – | – | 15.6 | – | CS(=O)(=O)/C=C/CNC(=O)c1cnc(N2CCCC2)nc1Oc1ccccc1 [Example 167, (E)-N-(3-(methylsulfonyl)allyl)-4-phenoxy-2-(pyrrolidin-1-yl)pyrimidine-5-carboxamide]
– | 17.4 | 12 | 0.397 | 0.986 | – | C=C(C#N)CNC(=O)c1cnc(C(C)(F)F)nc1Oc1ccccc1 [Example 271, N-(2-cyanoallyl)-2-(1,1-difluoroethyl)-4-phenoxypyrimidine-5-carboxamide]
21.3 | 8.49 | – | – | 62 | – | CCOc1cc(C2CCCC2)ccc1C(=O)NC/C=C/S(C)(=O)=O [Example 280, (E)-4-cyclopentyl-2-ethoxy-N-(3-(methylsulfonyl)allyl)benzamide]
– | 3.58 | > 10 | 0.6 | 1.4 | – | C[C@@H](/C=C/S(C)(=O)=O)NC(=O)c1ccc(C2CCCC2)cc1Oc1ccccc1 [Example 286, (S,E)-4-cyclopentyl-N-(4-(methylsulfonyl)but-3-en-2-yl)-2-phenoxybenzamide]
